SMILES strings stand for the structures.

A word on the IC50: it is the concentration that gives 50% inhibition.

The target in one data set is T1, DPP-IV (Homo sapiens, UniProt P27487).
T1 construct: an extract of the human colon carcinoma cell line Caco-2 is used as the DPP IV source; endogenous in cells; host or cells: Caco-2 (human colon carcinoma), differentiated to induce DPP-IV expression; Nonidet-P40 solubilised extract
Description: DPP-IV assay with Caco-2 cell extract as DPP IV source, AFC substrate, fluorescence. The class given is biochemical. The note with it: extract of human colon carcinoma cell line Caco-2; substrate 100 μM; 60 minutes at ambient temperature; read-out: DPP IV inhibition IC50. On the procedure:
The cell extract was obtained from cells solubilised in a buffer (10 mM Tris HCl, 0.15 M NaCl, 0.04 t.i.u. aprotinin, 0.5% Nonidet-P40, pH 8.0) by centrifugation at 35,000 g for 30 minutes at 4° C. (to remove cell debris).
The DPP-IV assay was carried out as follows:
50 μl of substrate solution (AFC; AFC is amido-4-trifluoromethylcoumarin), final concentration 100 μM, were placed in black microtitre plates. 20 μl of assay buffer (final concentrations 50 mM Tris HCl pH 7.8, 50 mM NaCl, 1% DMSO) was pipetted in. The reaction was started by the addition of 30 μl of solubilised Caco-2 protein (final concentration 0.14 μg of protein per well). The test substances under investigation were typically added prediluted to 20 μl, while the volume of assay buffer was then reduced accordingly. The reaction was carried out at ambient temperature, the incubation period was 60 minutes. […] Dummy values (corresponding to 0% activity) were obtained in mixtures with no Caco-2 protein (volume replaced by assay buffer), control values (corresponding to 100% activity) were obtained in mixtures without any added substance.

The subject of a further data set is rats. Nature of the data set: Tolerability: behavior of rats after oral administration. The class given is in vivo. Particulars: oral administration of 10 mg/kg.

T1 sequence (P27487 whole entry): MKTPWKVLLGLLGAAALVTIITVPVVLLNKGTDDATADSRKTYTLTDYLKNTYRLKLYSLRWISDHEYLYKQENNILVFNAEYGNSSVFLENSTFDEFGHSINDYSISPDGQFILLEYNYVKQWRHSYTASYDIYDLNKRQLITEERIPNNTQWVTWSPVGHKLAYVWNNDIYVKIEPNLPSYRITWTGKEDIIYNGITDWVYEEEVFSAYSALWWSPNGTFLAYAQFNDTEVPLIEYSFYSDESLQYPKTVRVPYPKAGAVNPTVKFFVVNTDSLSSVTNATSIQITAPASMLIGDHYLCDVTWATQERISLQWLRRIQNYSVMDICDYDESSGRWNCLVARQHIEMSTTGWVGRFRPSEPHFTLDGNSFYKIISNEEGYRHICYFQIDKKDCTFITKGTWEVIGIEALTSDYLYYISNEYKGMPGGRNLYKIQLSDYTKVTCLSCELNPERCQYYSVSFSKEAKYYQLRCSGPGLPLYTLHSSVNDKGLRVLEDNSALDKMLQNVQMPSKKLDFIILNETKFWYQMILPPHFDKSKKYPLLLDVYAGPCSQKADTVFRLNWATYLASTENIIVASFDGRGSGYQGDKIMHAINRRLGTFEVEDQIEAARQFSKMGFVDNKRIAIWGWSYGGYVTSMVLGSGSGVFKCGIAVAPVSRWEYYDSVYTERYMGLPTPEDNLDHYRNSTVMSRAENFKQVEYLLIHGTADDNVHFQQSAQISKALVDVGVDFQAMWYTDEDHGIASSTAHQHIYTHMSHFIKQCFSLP

On to `CC#CCn1c(C(=O)NCc2nc3ccccc3c3ccccc23)cnc1N1CCCC(N)C1` (centres unmarked) [1(2), 1-(but-2-ynyl)-2-(3-amino-piperidin-1-yl)-5-(phenanthridin-6-ylmethylaminocarbonyl)-1H-imidazole], for which the IC50 on DPP-IV was 41 nM.

In the case of `CC(C)=CCn1c(C(=O)NCc2cccc3ccccc23)nnc1N1CCCNCC1` [2(2), 3-([1,4]diazepan-1-yl)-4-(3-methyl-but-2-enyl)-5-(naphth-1-ylmethylaminocarbonyl)-4H-[1,2,4]triazole], the IC50 at DPP-IV was 386 nM.

Regarding `NC1CCCN(c2nnc(C(=O)NCc3cccc4ccccc34)n2Cc2ccccc2)C1` (centres unmarked) [3(1), 3-(3-amino-piperidin-1-yl)-4-benzyl-5-(naphth-1-ylmethylaminocarbonyl)-4H-[1,2,4]triazole], at DPP-IV, the IC50 was determined as 101 nM.

With `CC#CCn1c(C(=O)NCc2ccc3ncccc3c2)nnc1N1CCCC(N)C1` (centres unmarked) [4(2), 3-(3-amino-piperidin-1-yl)-4-(but-2-ynyl)-5-(quinolin-6-ylmethylaminocarbonyl)-4H-[1,2,4]triazole], the IC50 on DPP-IV came to 36 nM.

On to `CC(C)=CCn1c(C(=O)NCc2cccc3ccccc23)nnc1N1CCNCC1` [Example 2, 3-(piperazin-1-yl)-4-(3-methyl-but-2-enyl)-5-(naphth-1-ylmethylaminocarbonyl)-4H-[1,2,4]triazole], for which, at DPP-IV, the IC50 stood at 367 nM.

Regarding `CC(C)=CCn1c(C(=O)NCc2cccc3ccccc23)nnc1N1CCCC(N)C1` (centres unmarked) [Example 3, 3-(3-amino-piperidin-1-yl)-4-(3-methyl-but-2-enyl)-5-(naphth-1-ylmethylaminocarbonyl)-4H-[1,2,4]triazole], the IC50 at DPP-IV is 101 nM.

With `CC#CCn1c(C(=O)NCc2nc(C)cc3ccccc23)nnc1N1CCCC(N)C1` (centres unmarked) [Example 4(1), 3-(3-amino-piperidin-1-yl)-4-(but-2-ynyl)-5-(3-methyl-isoquinolin-1-ylmethylaminocarbonyl)-4H-[1,2,4]triazole], the “changes in the behavior of rats (tolerability)” value with rats is given as “no changes in the behavior of rats could be detected”.

Regarding `NC1CCCN(c2nnc(C(=O)NCc3cccc4ccccc34)n2Cc2ccccc2Cl)C1` (centres unmarked) [Example 4, 3-(3-amino-piperidin-1-yl)-4-(2-chloro-benzyl)-5-(naphth-1-ylmethylaminocarbonyl)-4H-[1,2,4]triazole], on DPP-IV, the IC50 turned out to be 382 nM.

(Values after patent US7470716B2, “Imidazoles and triazoles, their preparation, and their use as pharmaceutical compositions” (Boehringer Ingelheim International GmbH, priority 2004, dated 2008).)
